In patent publication US20030087830A1, “Low molecular weight components of cartilage, complexes of metals with amino acids, DI-peptides and analogs thereof; processes for preparation and therapeutic uses thereof” (priority 2001, published 2003):

Tests used:
[1] = Affinity of the amino acid with copper; format: physicochemical
human dermal fibroblasts = experiment: Fibroblast proliferation; format: cell-based; conditions: 48 hours; free amino acids and Glu-Trp 2.5 mM, CuCl2 1.25 mM
Method: (§1) Endothelial and tumor cell proliferation assays were performed to determine the ability of test samples to inhibit endothelial cell proliferation (antiangiogenic activity), normal cell proliferation,and tumor cell proliferation.
(§2) Endothelial cells (Human umbilical vein endothelial cells (HUVEC), bovine aortic endothelial cells (BAEC)), skeletal muscle cells, human dermal fibroblasts (all from Clonetics, Walkersville, Md.) were respectively maintained in EBM-2, MDEM, SKGM and FGFM-2 complete media according to manufacturer's instructions. Tumor rat glioblastoma cell line (C6) was maintained in DMEM (Sigma, Oaksville, Ontario) supplemented with 10% fetal calf serum (FCS) and antibiotics in 5% CO2. Briefly, cells seeded in 96-well sterile tissue culture dishes were treated with increasing concentrations of different test samples for a period of 48 hours at 37° C. Cell number was then evaluated by a calorimetric assay using the cell proliferation reagent tetrazolium salt and the fluorimetric assay using DNA dye (Hoescht) according to the procedure established by the manufacturer (Boehringer Mannhein). The conversion of these tetrazolium salts into formazan occurs only in metabolically active cells. The percentage of cell inhibition was determined by comparison to untreated cells.

[2] = tested on: bFGF-stimulated blood vessel formation in Matrigel; experiment: Matrigel in vivo angiogenesis assay; set-up: species or system C57B1/6 mice; conditions: intra-peritoneal daily 10 days
Method: The Matrigel™ in vivo assay was performed to determine the ability of test samples to inhibit blood vessel formation (antiangiogenic activity) and to establish their bioavailability in vivo.
Briefly, liquid Matrigel™ (Becton Dickinson, Bedford, Mass.) was maintained at 4° C. and mixed thoroughly for at least 3 hours with 1,500 ng/ml basic fibroblast growth factor (bFGF) (R&D Systems, Minneapolis, Minn.) used as the primary angiogenic stimulus. The mixture (0.5 ml) was injected subcutaneously into the ventral midline of C57B1/6 mice, and treatment with different test samples or saline solution was initiated the same day. Additional animals were also injected with Matrigel™ containing no bFGF to serve as baseline controls. The animals were treated daily for a 10 day period (intra-peritonealy, 0.2 ml of each dose). At day 11, animals were injected with FITC-dextran 20 min prior to euthanizing treated mice. Matrigel™ gels were removed along with underlying peritoneum and prepared for FITC-dextran detection by fluorimetry. The concentration of FITC-dextran in the gels was calculated from a known concentration of FITC-dextran using a standard curve. The FITC-dextran content of the gels from compound-treated animals and controls was expressed as a percent of the positive bFGF-treated controls after the baseline control of FITC-dextran levels were subtracted from all groups.

[3] = tested on: Endothelial cells (HUVEC, BAEC); experiment: Endothelial cell proliferation; format: cell-based, human / bovine; conditions: 48 hours; copper equivalent; NA = less than 50% at 1.25 mM copper equivalent; read-out: EC proliferation (EC50 mM)
Method: as §1, §2
(§3) According to the endothelial cell proliferation assay, the relative effectiveness of two compounds is compared by reference to the EC50 thereof. The EC50 is the concentration of compound at which the number of endothelial cells is reduced by 50% as compared to control. The efficacy of the test samples in EVT is established by the percent of eggs with altered angiogenesis at a given inhibitor dose of 0.6 mg of copper equivalent (see FIG. 6 for examples). A comparison of the antiangiogenic activity of the compounds of the present invention with divalent metal salts (CuCl2, MgCl2, ZnCl2, CoCl2) and uncoupled alpha-amino acids, alpha-imino acids, dipeptides, and nitrogenated molecules comprising a carboxylic acid group, such as creatine, is provided to illustrate that the formation of the amino acid-copper complex gives rise to complexes having antiangiogenic activity.

Endothelial cells = experiment: Endothelial cell tubule formation assay (tubulogenesis); format: cell-based; set-up: key to Tubulogenesis: 0: Numerous capillary-like tube forming pentagonal network; +: Decrease of capillary-like tubes; ++: Dramatic decrease of capillary-like tubes; +++: Absence of capillary-like tubes
Method: The endothelial cell tubule formation assay is a semi-quantitative assay that was performed to determine the ability of test samples to inhibit this multi-step process, which involves cell adhesion, migration, differentiation and growth, using a commercial kit (Chemicon). Briefly, endothelial cells were seeded on solid gel of Ecmatrix™ (Chemicon), basement proteins prepared from the Engelbreth Holm-Swarm (EHS) mouse tumor in microplate in a E-99 media (Sigma) supplemented with 5% FBS and VEGF (50 ng/ml) in the presence or absence of the test sample. Cells were incubated for a period of 24 hours at 37° C. Pictures were taken on the entire tissue culture dish using a binocular microscope for further evaluation.

C6 glioblastoma cells = experiment: C6 glioblastoma cell proliferation; format: cell-based, rat; conditions: 48 hours; free amino acids and Glu-Trp 2.5 mM, CuCl2 1.25 mM
Method: as §1, §2

[4] = tested on: Striated muscle cells (skeletal muscle cells); experiment: Striated muscle cell proliferation; format: cell-based; conditions: 48 hours; free amino acids and Glu-Trp 2.5 mM, CuCl2 1.25 mM
Method: as §1, §2

[5] = tested on: blood vessel formation in the vitelline membrane of chick embryo; experiment: Embryonic Vascularization Test (EVT); format: in vivo
Method: The Embryonic Vascularization Test (EVT) was performed to determine the ability of test samples to inhibit the formation of new blood vessels (antiangiogenic activity).
The normal development of a chick embryo involves the formation of an external vascular system located in the vitelline membrane which carries nutrients from the vitellus (yolk) to the developing embryo. When placed onto the vitelline membrane, antiangiogenic substances can inhibit the blood vessel formation that occurs in the vitelline membrane. Briefly, methylcellulose discs (an inert solid and transparent matrix) containing different test samples were placed on the external border of the vascular perimeter of the vitelline membrane, where the angiogenic process occurs. Vascularization was assessed 24 hours after disc deposition, and results were expressed as the percent of embryos in which blood vessel formation was affected. The blood vessel formation was considered affected when its growing path was either deviated, or diminished or when there was no growth observed beyond the disc as compared to the negative control. The results are expressed as 0, +, and ++ where 0 is for a lower response than 25 percent of the eggs; + is for a response between 25 and 50 percent; and ++ is for an antiangiogenic response observed in more than 50 percent of the eggs.
as §3

- Affinity of the AA with Cooper [1]: 16.0
- C6 glioblastoma (EC50 (mM)) (C6 glioblastoma cells): Non-active
Substance: L-Asp Cu L-Asp [Compound 6]
- EC50 (human dermal fibroblasts): 1.15 mM
- Matrigel in vivo % of inhibition ([2]; 0.14 mg/Kg equivalent copper): 27.7% of inhibition
- Matrigel in vivo % of inhibition ([2]; 1.14 mg/Kg equivalent copper): 22.6% of inhbition
- Matrigel in vivo % inhibition ([2]; 1.4 mg/Kg equivalent copper): 22.6%
- EC50 [3]: 0.29 mM
- Tubulogenesis activity (in words) (Endothelial cells): important activity
- Tubulogenesis (in words) (Endothelial cells; 1.25 mmole (equivalent copper), 24 hours): Decrease of capillary-like tube formation
- Tubulogenesis (Endothelial cells; copper complexes, concentration not given, VEGF 50 ng/ml, 24 hours): +
- Striated muscle (EC50 (mM)) [4]: Non-active
- EVT (% of inhibition) ([5]; 0.6 mg copper equivalent, percent of embryos with affected blood vessel formation, 24 hours after disc deposition): ±38% of inhibition
- EVT (% of inhibition) ([5]; activity at 0.6 mg equivalent Copper): + (+ between 25-50% of inhibition)
